Experimental data taken from ChEMBL document CHEMBL4834431, “Design of Dimeric Bile Acid Derivatives as Potent and Selective Human NTCP Inhibitors” (J Med Chem, 2021).

system: Hepatitis B virus; assay: Antiviral activity against HBV infected in human HepG2-NTCP cells assessed as reduction in HBeAg secretion incubated for 24 hrs followed replacement with fresh medium and measured at day 5 post infection by ELISA; type: functional, organism-based

`C[C@H](CCC(=O)NCCS(=O)(=O)O)[C@H]1CC[C@H]2[C@@H]3[C@@H](O)C[C@@H]4CC(NCCNC5CC[C@@]6(C)[C@@H](C5)C[C@H](O)[C@@H]5[C@@H]6CC[C@]6(C)[C@@H]([C@H](C)CCC(=O)NCCS(=O)(=O)O)CC[C@@H]56)CC[C@]4(C)[C@H]3CC[C@]12C` (stereo partly specified) and `C[C@H](CCC(=O)NCCS(=O)(=O)O)[C@H]1CC[C@H]2[C@@H]3[C@@H](O)C[C@@H]4C[C@H](NCCCCCN[C@@H]5CC[C@@]6(C)[C@@H](C5)C[C@H](O)[C@@H]5[C@@H]6CC[C@]6(C)[C@@H]([C@H](C)CCC(=O)NCCS(=O)(=O)O)CC[C@@H]56)CC[C@]4(C)[C@H]3CC[C@]12C` are within 1.5-fold of each other in IC50: 7680 nM for the first, 9650 nM for the second.

Going from `C[C@H](CCC(=O)NCCS(=O)(=O)O)[C@H]1CC[C@H]2[C@@H]3[C@H](O)C[C@@H]4C[C@H](OC(=O)CCCC(=O)O[C@@H]5CC[C@@]6(C)[C@@H](C5)C[C@@H](O)[C@@H]5[C@@H]6CC[C@]6(C)[C@@H]([C@H](C)CCC(=O)NCCS(=O)(=O)O)CC[C@@H]56)CC[C@]4(C)[C@H]3CC[C@]12C` to `C[C@H](CCC(=O)NCCS(=O)(=O)O)[C@H]1CC[C@H]2[C@@H]3[C@@H](O)C[C@@H]4C[C@H](OC(=O)CCCCCC(=O)O[C@@H]5CC[C@@]6(C)[C@@H](C5)C[C@H](O)[C@@H]5[C@@H]6CC[C@]6(C)[C@@H]([C@H](C)CCC(=O)NCCS(=O)(=O)O)CC[C@@H]56)CC[C@]4(C)[C@H]3CC[C@]12C`, the IC50 rises from 187 nM to 683 nM (3.7-fold). The first is the more potent here.

Compared with `C[C@H](CCC(=O)NCCS(=O)(=O)O)[C@H]1CC[C@H]2[C@@H]3CC[C@@H]4C[C@H](OC(=O)CCCC(=O)O[C@@H]5CC[C@@]6(C)[C@H](CC[C@@H]7[C@@H]6CC[C@]6(C)[C@@H]([C@H](C)CCC(=O)NCCS(=O)(=O)O)CC[C@@H]76)C5)CC[C@]4(C)[C@H]3CC[C@]12C`, `C[C@H](CCC(=O)NCCS(=O)(=O)O)[C@H]1CC[C@H]2[C@@H]3[C@@H](O)C[C@@H]4CC(NC(=O)CCCC(=O)NC5CC[C@@]6(C)[C@@H](C5)C[C@H](O)[C@@H]5[C@@H]6CC[C@]6(C)[C@@H]([C@H](C)CCC(=O)NCCS(=O)(=O)O)CC[C@@H]56)CC[C@]4(C)[C@H]3CC[C@]12C` (stereo partly specified) is 79-fold lower in IC50: 3240 nM for the first, 41 nM for the second.

`C[C@H](CCC(=O)NCCS(=O)(=O)O)[C@H]1CC[C@H]2[C@@H]3[C@@H](O)C[C@@H]4CC(O)(C5(O)CC[C@@]6(C)[C@H](C[C@H](O)[C@@H]7[C@@H]6CC[C@]6(C)[C@@H]([C@H](C)CCC(=O)NCCS(=O)(=O)O)CC[C@@H]76)C5)CC[C@]4(C)[C@H]3CC[C@]12C` (stereo partly specified) and `C[C@H](CCC(=O)NCCS(=O)(=O)O)[C@H]1CC[C@H]2[C@@H]3[C@@H](O)C[C@@H]4C/C(=C5\CC[C@@]6(C)[C@@H](C5)C[C@H](O)[C@@H]5[C@@H]6CC[C@]6(C)[C@@H]([C@H](C)CCC(=O)NCCS(=O)(=O)O)CC[C@@H]56)CC[C@]4(C)[C@H]3CC[C@]12C` cannot be ordered by IC50: greater than 10000 nM for the first, greater than 10000 nM for the second.

Going from `C[C@H](CCC(=O)O)[C@H]1CC[C@H]2[C@@H]3[C@@H](O)C[C@@H]4C[C@H](OCCCCCO[C@@H]5CC[C@@]6(C)[C@@H](C5)C[C@H](O)[C@@H]5[C@@H]6CC[C@]6(C)[C@@H]([C@H](C)CCC(=O)NCCS(=O)(=O)O)CC[C@@H]56)CC[C@]4(C)[C@H]3CC[C@]12C` to `C[C@H](CCC(=O)NCCS(=O)(=O)O)[C@H]1CC[C@H]2[C@@H]3[C@@H](O)C[C@@H]4C[C@H](OCC#CC#CCO[C@@H]5CC[C@@]6(C)[C@@H](C5)C[C@H](O)[C@@H]5[C@@H]6CC[C@]6(C)[C@@H]([C@H](C)CCC(=O)NCCS(=O)(=O)O)CC[C@@H]56)CC[C@]4(C)[C@H]3CC[C@]12C`, the IC50 rises from 935 nM to 1870 nM (2-fold). The first is the more potent here.

Compared with `C[C@H](CCc1cn([C@@H]2CC[C@@]3(C)[C@@H](C2)C[C@H](O)[C@@H]2[C@@H]3CC[C@]3(C)[C@@H]([C@H](C)CCC(=O)O)CC[C@@H]23)nn1)[C@H]1CC[C@H]2[C@@H]3[C@@H](O)C[C@@H]4C[C@H](O)CC[C@]4(C)[C@H]3CC[C@]12C`, `C[C@H](CCCOC(=O)CC[C@@H](C)[C@H]1CC[C@H]2[C@@H]3[C@@H](O)C[C@@H]4C[C@H](O)CC[C@]4(C)[C@H]3CC[C@]12C)[C@H]1CC[C@H]2[C@@H]3[C@@H](O)C[C@@H]4C[C@H](O)CC[C@]4(C)[C@H]3CC[C@]12C` is 110-fold higher in IC50: 25 nM for the first, 2700 nM for the second.

Going from `C[C@@H]1CCC(=O)NCCCNC(=O)CC[C@@H](C)[C@H]2CC[C@H]3[C@@H]4[C@@H](O)C[C@@H]5C[C@@H](CC[C@]5(C)[C@H]4CC[C@]23C)NC(=O)CCCC(=O)N[C@@H]2CC[C@@]3(C)[C@@H](C2)C[C@H](O)[C@@H]2[C@@H]3CC[C@]3(C)[C@@H]1CC[C@@H]23` to `C[C@@H]1CCC(=O)NCCNC(=O)CC[C@@H](C)[C@H]2CC[C@H]3[C@@H]4[C@@H](O)C[C@@H]5C[C@H](CC[C@]5(C)[C@H]4CC[C@]23C)NC(=O)CN(C)CC(=O)N[C@@H]2CC[C@@]3(C)[C@@H](C2)C[C@H](O)[C@@H]2[C@@H]3CC[C@]3(C)[C@@H]1CC[C@@H]23`, the IC50 rises from 564 nM to 1210 nM (2.1-fold). The first is the more potent here.

First: C[C@@H]1CCC(=O)NCCCCCCNC(=O)CC[C@@H](C)[C@H]2CC[C@H]3[C@@H]4[C@@H](O)C[C@@H]5CC[C@@H](C[C@]5(C)[C@H]4CC[C@]23C)n2cc(nn2)CO[C@H]2CC[C@H]3C[C@H](O)[C@@H]4[C@H](CC[C@]5(C)[C@@H]1CC[C@@H]45)[C@@]3(C)C2
Second: C[C@@H]1CCC(=O)NCCCCCNC(=O)CC[C@@H](C)[C@H]2CC[C@H]3[C@@H]4[C@@H](O)C[C@@H]5CC[C@@H](C[C@]5(C)[C@H]4CC[C@]23C)n2cc(nn2)CO[C@H]2CC[C@H]3C[C@H](O)[C@@H]4[C@H](CC[C@]5(C)[C@@H]1CC[C@@H]45)[C@@]3(C)C2
The IC50 of the first is 2.2-fold lower: 210 nM for the first, 465 nM for the second.

`C[C@H](CCCNC(=O)CC[C@@H](C)[C@H]1CC[C@H]2[C@@H]3[C@@H](O)C[C@@H]4C[C@H](O)CC[C@]4(C)[C@H]3CC[C@]12C)[C@H]1CC[C@H]2[C@@H]3[C@@H](O)C[C@@H]4C[C@H](O)CC[C@]4(C)[C@H]3CC[C@]12C` and `C[C@H](CCC(=O)NCCS(=O)(=O)O)[C@H]1CC[C@H]2[C@@H]3[C@@H](O)C[C@@H]4CC(C5CC[C@@]6(C)[C@@H](C5)C[C@H](O)[C@@H]5[C@@H]6CC[C@]6(C)[C@@H]([C@H](C)CCC(=O)NCCS(=O)(=O)O)CC[C@@H]56)CC[C@]4(C)[C@H]3CC[C@]12C` (stereo partly specified) cannot be ordered by IC50: greater than 10000 nM for the first, greater than 10000 nM for the second.

Compared with `C[C@@H]1CCCOC(=O)CC[C@@H](C)[C@H]2CC[C@H]3[C@@H]4[C@@H](O)C[C@@H]5C[C@@H](CC[C@]5(C)[C@H]4CC[C@]23C)NC(=O)CCCC(=O)N[C@@H]2CC[C@@]3(C)[C@@H](C2)C[C@H](O)[C@@H]2[C@@H]3CC[C@]3(C)[C@@H]1CC[C@@H]23`, `C[C@@H]1CCC(=O)OCCOC(=O)CC[C@@H](C)[C@H]2CC[C@H]3[C@@H]4[C@@H](O)C[C@@H]5C[C@@H](CC[C@]5(C)[C@H]4CC[C@]23C)NC(=O)CCCC(=O)N[C@@H]2CC[C@@]3(C)[C@@H](C2)C[C@H](O)[C@@H]2[C@@H]3CC[C@]3(C)[C@@H]1CC[C@@H]23` is 2.8-fold lower in IC50: 525 nM for the first, 185 nM for the second. The second is the more potent here.

First: C[C@H](CCC(=O)O)[C@H]1CC[C@H]2[C@@H]3[C@@H](O)C[C@@H]4C[C@H](NC(=O)CCCC(=O)N[C@@H]5CC[C@@]6(C)[C@@H](C5)C[C@H](O)[C@@H]5[C@@H]6CC[C@]6(C)[C@@H]([C@H](C)CCC(=O)NCCS(=O)(=O)O)CC[C@@H]56)CC[C@]4(C)[C@H]3CC[C@]12C
Second: C[C@H](CCC(=O)O)[C@H]1CC[C@H]2[C@@H]3[C@@H](O)C[C@@H]4CC(NC(=O)CCCC(=O)NC5CC[C@@]6(C)[C@@H](C5)C[C@H](O)[C@@H]5[C@@H]6CC[C@]6(C)[C@@H]([C@H](C)CCC(=O)O)CC[C@@H]56)CC[C@]4(C)[C@H]3CC[C@]12C (stereo partly specified)
The IC50 of the first is 38-fold lower: 93 nM for the first, 3570 nM for the second.

First: C[C@@H]1CCC(=O)NCCCNC(=O)CC[C@@H](C)[C@H]2CC[C@H]3[C@@H]4[C@@H](O)C[C@@H]5CC[C@@H](C[C@]5(C)[C@H]4CC[C@]23C)n2cc(nn2)CO[C@H]2CC[C@H]3C[C@H](O)[C@@H]4[C@H](CC[C@]5(C)[C@@H]1CC[C@@H]45)[C@@]3(C)C2
Second: C[C@@H]1CCC(=O)NCCCCNC(=O)CC[C@@H](C)[C@H]2CC[C@H]3[C@@H]4[C@@H](O)C[C@@H]5CC[C@@H](C[C@]5(C)[C@H]4CC[C@]23C)n2cc(nn2)CO[C@H]2CC[C@H]3C[C@H](O)[C@@H]4[C@H](CC[C@]5(C)[C@@H]1CC[C@@H]45)[C@@]3(C)C2
The IC50 of the first is 1.6-fold lower: 178 nM for the first, 280 nM for the second. The first is the more potent here.

`C[C@H](CCC(=O)NCCS(=O)(=O)O)[C@H]1CC[C@H]2[C@@H]3[C@@H](O)C[C@@H]4CC(NC(=O)CC(=O)NC5CC[C@@]6(C)[C@@H](C5)C[C@H](O)[C@@H]5[C@@H]6CC[C@]6(C)[C@@H]([C@H](C)CCC(=O)NCCS(=O)(=O)O)CC[C@@H]56)CC[C@]4(C)[C@H]3CC[C@]12C` (stereo partly specified) and `C[C@H](CCC(=O)O[C@@H]1CC[C@@]2(C)[C@@H](C1)C[C@H](O)[C@@H]1[C@@H]2CC[C@]2(C)[C@@H]([C@H](C)CCC(=O)O[C@@H]3CC[C@@]4(C)[C@@H](C3)C[C@H](O)[C@@H]3[C@@H]4CC[C@]4(C)[C@@H]([C@H](C)CCC(=O)NCCS(=O)(=O)O)CC[C@@H]34)CC[C@@H]12)[C@H]1CC[C@H]2[C@@H]3[C@@H](O)C[C@@H]4C[C@H](O)CC[C@]4(C)[C@H]3CC[C@]12C` are within 1.5-fold of each other in IC50: 3570 nM for the first, 2650 nM for the second.
